In patent publication US20030087906A1, “NITROGEN SUBSTITUTED BIARYL PURINE DERIVATIVES AS POTENT ANTIPROLIFERATIVE AGENTS” (priority 2001, published 2003):

Assays:
[1] = tested on: 60-human transformed cell lines; experiment: NCI 60-cell line growth inhibition assay (whole panel); format: cell-based; settings: range over 60 cell lines
[2] = tested on: implanted tumors; experiment: Efficacy study: delay in growth of implanted tumors, regressions, tumor-free survivors; format: in vivo, athymic mice
Method: The following data in Table 9 summarize the in vivo properties of several compounds of the current invention. The protocol for the experiment is as follows. The dose-range finding study consists of four groups of three athymic mice each (four dose levels.) The compound is administered on the basis of individual animal body weight. The route is intraperitoneal (IP) and the treatment schedule is daily for 14 days (qd×14) or once every 4 days for 12 days (q4d×3).
The efficacy study consists of three compound-treated groups (six mice/group), a positive control-treated group (six mice), and a vehicle-treated control group of 12 mice. Test compounds were administered IP under the treatment schedules listed above (qd×14 or q4d×3), whereas the positive control agent (Taxol) was administered intravenously (IV) at a dosage level of 15 mg/kg/dose for five consecutive days (qd×5). All agents were administered on the basis of individual animal body weight. Treatment began when the implanted tumors were approximately 100 mg in size (range of 65 to 200 mg). The mice were observed daily for survival. Each tumor was measured by caliper in two dimensions and converted to tumor mass using the formula for a prolate ellipsoid (a×b^2/2) and assuming unit density. Tumor measurements and animal body weights were recorded twice weekly. Antitumor activity was assessed by the delay in tumor growth of the treated groups in comparison to the vehicle-treated control group, partial and complete regressions, and tumor-free survivors.

| SMILES | GI50 [1] [µM] | T-C ([2]; 0.27 mg/kg IP q4d × 3) [days] | Tumor free/total ([2]; 0.27 mg/kg IP q4d × 3) | T-C ([2]; 0.4 mg/kg IP q4d × 3) [days] | Tumor free/total ([2]; 0.4 mg/kg IP q4d × 3) | T-C ([2]; 0.6 mg/kg IP q4d × 3) [days] | Tumor free/total ([2]; 0.6 mg/kg IP q4d × 3) |
| --- | --- | --- | --- | --- | --- | --- | --- |
| Cn1cnc2c(NCc3ccccc3)nc(NCCO)nc21 [Olomoucine, reference compound] | 20 to 100 | – | – | – | – | – | – |
| CC(C)n1cnc2c(NCc3ccc(-c4ccsc4)cc3)nc(N[C@H]3CC[C@H](N)CC3)nc21 [Compound 12] | – | 1.2 | 0/6 | 0.2 | 0/6 | 0.3 | 0/6 |
